{
  "source": "patent US20260200980A1",
  "about": "“METHODS AND COMPOSITIONS FOR TREATING OCULAR LESIONS” (priority 2022, published 2026)",
  "key": {"ocular lesion [1]": {"test_system": "ocular lesion", "assay": "Lesion size in patients 24 weeks after intravitreal ONL1204", "format": "in vivo, human", "conditions": "for % Change in Lesion Growth: week 24, study eye relative to untreated fellow eye; for % Change Based on Sqrt Transformation / Baseline Lesion Size / Week 24 Lesion Size: study eye; for % Change Based on Sqrt Transformation: baseline to week 24, square root of lesion area; for Baseline Lesion Size: baseline prior to treatment", "method": "The primary endpoints were the safety profile associated with single and multiple dosing in this study, including: adverse event reporting, clinical evaluations including lesion size and clinical evaluation.\nBaseline best lesion size (area in square millimeters) was measured prior to treatment with ONL1204. […] The following doses were evaluated: 50 ug, 100 ug, and 200 ug (micrograms).\n(§1) Table 1A and 1B show reduced lesion sizes associated with treated eyes at week 24. Percent (%) change is measured relative the untreated fellow eye. […] Table 3A, 3B and 3C show reduced lesion sizes associated with treated eyes (Tables 3A and 3C) in addition to associated historical lesion growth (Tables 3A and 3B). […] For “% Change Based on Sqrt Transformation” and similar measures, the square root of the lesion area was determined and the % difference between the starting value and the last timepoint was calculated. Percent (%) change is measured relative the untreated fellow eye."}, "visual function": {"test_system": "visual function", "assay": "ETDRS Vision (Letters Read), BCVA, in patients treated with ONL1204", "format": "in vivo, human"}, "ocular lesion [2]": {"test_system": "ocular lesion", "assay": "Lesion size in historical (V1-V3) and treatment phase (V3-V9), 2 injections of ONL1204 3 months apart", "format": "in vivo, human", "conditions": "for % Change Nat His Phase (Using Sqrt Transformation): V1 to V3, 24 weeks before treatment; for % Change Tx Phase (Using Sqrt Transformation) / V1 Lesion Size / V3 Lesion Size / V9 Lesion Size: study eye; for % Change Tx Phase (Using Sqrt Transformation): V3 to V9, 24 weeks; for % Change Tx Phase (Using Sqrt Transformation) / V9 Lesion Size: 2 injections 3 months apart; for V1 Lesion Size: visit 1, start of historical phase, before treatment; for V3 Lesion Size: visit 3, end of historical phase, start of treatment; for V9 Lesion Size: visit 9, 24 weeks after first treatment", "method": "as §1"}, "male rabbit NaIO3 model": {"test_system": "male rabbit NaIO3 model", "assay": "Sodium iodate (NaIO3) challenge study, duration of protection", "format": "in vivo", "conditions": "for lesion area vs negative control: NaIO3 challenge Day 4", "method": "Animals were anesthetized with isoflurane vapors to effect. […] No reflux was noted on the dosing record.\nAnimals were anesthetized with isoflurane vapors to effect. […] NaIO3 causes one or more regions of atrophy and depigmentation which creates a window into the choroid.\nThe resulting area was then measured."}, "[3]": {"conditions": "rabbit, in vivo", "quoted_text": "Pharmacokinetic analyses were performed on the vitreous humor concentration data.\nSeven animals received a repeat IVT dose at 2 mg/mL (0.1 mg/eye) on Day 90.\nVitreous humor, retina, and choroid were collected on days 1, 7, 14, 28, 42, 61, 90, 97, 151, and 168. Eyes were enucleated, snap frozen using liquid nitrogen, and kept on dry ice or frozen at −80° C. until dissected for collection of aqueous humor, vitreous humor, retina, choroid, iris-ciliary body (ICB), and lens.\nTo homogenize ocular tissue samples, weighed amounts of control bovine vitreous humor, retina, and choroid were homogenized in USA scientific impact resistant microtubes containing 2.8 mm ceramic beads. Unknown rabbit vitreous humor, retina, and choroid samples were homogenized in USA scientific impact resistant microtubes containing 2.8 mm ceramic beads. […]"}, "[4]": {"conditions": "minipig, in vivo", "quoted_text": "Seven animals received a repeat IVT dose at 2 mg/mL (0.1 mg/eye) on Day 90. […] Vitreous humor, retina, and choroid were collected on days 1, 7, 14, 28, and 88."}},
  "note": "Several values for one entry are separate records, joined by “and”; a condition that tells them apart may be missing. Equal entries are not always repeated. Where two headings read alike, the source gives them in different places. Where no end group is shown, it is not given here.",
  "data": [
    {"substance": "HHIYLGAVNYIY-NH2 [ONL1204]", "values": [
      {"measurement": "% Change in Lesion Growth", "setting": "ocular lesion [1]; 50 ug", "value": "−45", "unit": "%"},
      {"measurement": "% Change in Lesion Growth", "setting": "ocular lesion [1]; 100 ug", "value": "−27% and −32%"},
      {"measurement": "% Change in Lesion Growth", "setting": "ocular lesion [1]; 200 ug", "value": "−57% and −53%"},
      {"measurement": "lesion size growth", "setting": "ocular lesion [1]; all patients, doses 50, 100 and 200 ug, compared to untreated fellow eye", "value": "reduction in lesion size growth"},
      {"measurement": "% Change Based on Sqrt Transformation", "setting": "ocular lesion [1]; 50 ug", "value": "4.14% and 6.95%"},
      {"measurement": "Baseline Lesion Size", "setting": "ocular lesion [1]; 100 ug intravitreal", "value": "20.1 mm^2 and 24.16 mm^2"},
      {"measurement": "Week 24 Lesion Size", "setting": "ocular lesion [1]; 100 ug intravitreal", "value": "21.2 mm2 and 27.61 mm2"},
      {"measurement": "% Change Based on Sqrt Transformation", "setting": "ocular lesion [1]; 100 ug", "value": "2.70% and 6.90%"},
      {"measurement": "Baseline Lesion Size", "setting": "ocular lesion [1]; 200 ug intravitreal", "value": "9.37 mm^2 and 9.09 mm^2"},
      {"measurement": "Week 24 Lesion Size", "setting": "ocular lesion [1]; 200 ug intravitreal", "value": "9.81 mm2 and 9.78 mm2"},
      {"measurement": "% Change Based on Sqrt Transformation", "setting": "ocular lesion [1]; 200 ug", "value": "2.32% and 3.73%"},
      {"measurement": "visual function (e.g., BCVA as measured by letters read)", "setting": "visual function; eyes having a patchy lesion", "value": "improved visual function"},
      {"measurement": "ETDRS Vision (Letters Read) Week 1", "setting": "visual function; study eye, 50 μg", "value": "42 Letters Read and 33 Letters Read"},
      {"measurement": "ETDRS Vision (Letters Read) Week 2", "setting": "visual function; study eye, 50 μg", "value": "34 Letters Read and 33 Letters Read"},
      {"measurement": "ETDRS Vision (Letters Read) Week 4", "setting": "visual function; study eye, 50 μg", "value": "36 Letters Read and 33 Letters Read"},
      {"measurement": "ETDRS Vision (Letters Read) Week 12", "setting": "visual function; study eye, 50 μg", "value": 36, "unit": "Letters Read"},
      {"measurement": "ETDRS Vision (Letters Read) Week 24", "setting": "visual function; study eye, 50 μg", "value": "42 Letters Read and 35 Letters Read"},
      {"measurement": "ETDRS Vision (Letters Read) Screening/Baseline", "setting": "visual function; study eye, 50 μg, before treatment", "value": "23 Letters Read and 26 Letters Read"},
      {"measurement": "ETDRS Vision (Letters Read) Week 1", "setting": "visual function; study eye, 100 μg", "value": 13, "unit": "Letters Read"},
      {"measurement": "ETDRS Vision (Letters Read) Week 2", "setting": "visual function; study eye, 100 μg", "value": "13 Letters Read and 19 Letters Read"},
      {"measurement": "ETDRS Vision (Letters Read) Week 12", "setting": "visual function; study eye, 100 μg", "value": "15 Letters Read and 27 Letters Read"},
      {"measurement": "ETDRS Vision (Letters Read) Week 24", "setting": "visual function; study eye, 100 μg", "value": "15 Letters Read and 24 Letters Read"},
      {"measurement": "ETDRS Vision (Letters Read) Screening/Baseline", "setting": "visual function; study eye, 100 μg, before treatment", "value": "14 Letters Read and 11 Letters Read"},
      {"measurement": "ETDRS Vision (Letters Read) Week 1", "setting": "visual function; study eye, 200 μg", "value": "29 Letters Read and 31 Letters Read"},
      {"measurement": "ETDRS Vision (Letters Read) Week 2", "setting": "visual function; study eye, 200 μg", "value": "32 Letters Read and 30 Letters Read"},
      {"measurement": "ETDRS Vision (Letters Read) Week 4", "setting": "visual function; study eye, 200 μg", "value": "30 Letters Read and 38 Letters Read"},
      {"measurement": "ETDRS Vision (Letters Read) Week 12", "setting": "visual function; study eye, 200 μg", "value": "28 Letters Read and 41 Letters Read"},
      {"measurement": "ETDRS Vision (Letters Read) Week 24", "setting": "visual function; study eye, 200 μg", "value": "26 Letters Read and 40 Letters Read"},
      {"measurement": "ETDRS Vision (Letters Read) Baseline", "setting": "visual function; study eye, 200 μg, baseline visit, on a different day from screening, before treatment", "value": 25, "unit": "Letters Read"},
      {"measurement": "ETDRS Vision (Letters Read) Screening/Baseline", "setting": "visual function; study eye, 200 μg, before treatment", "value": 39, "unit": "Letters Read"},
      {"measurement": "ETDRS Vision (Letters Read) Screening", "setting": "visual function; study eye, 200 μg, screening visit, on a different day from baseline, before treatment", "value": 19, "unit": "Letters Read"},
      {"measurement": "% Change Nat His Phase (Using Sqrt Transformation)", "setting": "ocular lesion [2]; study eye later given 50 ug", "value": "5.31% and 1.38%"},
      {"measurement": "% Change Nat His Phase (Using Sqrt Transformation)", "setting": "ocular lesion [2]; study eye later given 100 ug", "value": "2.97% and 3.20%"},
      {"measurement": "% Change Tx Phase (Using Sqrt Transformation)", "setting": "ocular lesion [2]; 50 ug", "value": "3.74% and 0.05%"},
      {"measurement": "V1 Lesion Size", "setting": "ocular lesion [2]; 50 ug", "value": "12.08 mm^2 and 18.41 mm^2"},
      {"measurement": "V3 Lesion Size", "setting": "ocular lesion [2]; 50 ug", "value": "13.4 mm^2 and 18.92 mm^2"},
      {"measurement": "V9 Lesion Size", "setting": "ocular lesion [2]; 50 ug", "value": "14.42 mm^2 and 18.94 mm^2"},
      {"measurement": "% Change Tx Phase (Using Sqrt Transformation)", "setting": "ocular lesion [2]; 100 ug", "value": "3.37% and 1.39%"},
      {"measurement": "V1 Lesion Size", "setting": "ocular lesion [2]; 100 ug", "value": "5.64 mm^2 and 7.7 mm^2"},
      {"measurement": "V3 Lesion Size", "setting": "ocular lesion [2]; 100 ug", "value": "5.98 mm^2 and 8.2 mm^2"},
      {"measurement": "V9 Lesion Size", "setting": "ocular lesion [2]; 100 ug", "value": "6.39 mm^2 and 8.43 mm^2"},
      {"measurement": "lesion area vs negative control", "setting": "male rabbit NaIO3 model; 25 ug per eye IVT Day 0", "value": "significantly lower than negative control"},
      {"measurement": "lesion area vs negative control", "setting": "male rabbit NaIO3 model; 100 ug per eye IVT Day 0", "value": "significantly lower than negative control"},
      {"measurement": "lesion size vs negative controls and 25 ug group", "setting": "male rabbit NaIO3 model; 100 ug per eye IVT Day 0, NaIO3 challenge Day 14", "value": "significantly smaller lesion size"},
      {"measurement": "lesion size vs negative control animals and 25 ug group", "setting": "male rabbit NaIO3 model; 100 ug per eye IVT Day 0, NaIO3 challenge Day 28", "value": "significantly smaller lesion size"},
      {"measurement": "mean lesion size", "setting": "male rabbit NaIO3 model; across challenge time points", "value": "substantive reduction"},
      {"measurement": "detection in retinal tissue as well as the vitreous humor", "setting": "[3]", "value": "detected"},
      {"measurement": "detection in the vitreous humor", "setting": "[3]", "value": "detected"},
      {"measurement": "detection in the vitreous humor", "setting": "[4]", "value": "detected"}
    ]}
  ]
}
